The results in this text go back to paper PMC9785441, “A Broad Spectrum Antiparasitic Activity of Organotin (IV) Derivatives and Its Untargeted Proteomic Profiling Using Leishmania donovani” (Pathogens, 2022).

Data set [1] has as its system L. donovani-infected B10R cells. Nature of the data set: Untargeted proteomics of L. donovani-infected B10R cells treated and untreated with MS26Et3. It counts as cell-based, mouse / Leishmania donovani. As to conditions: L. donovani-infected B10R cells exposed to compound vs not exposed. Here is the method:
B10R culture cells (infected or uninfected with Leishmanaia donovani) were collected and washed twice in cold PBS. The cell pellets (~10^6 cells/pellet) were snap-frozen and stored at −80 °C. To extract the proteins, pellets were thawed, and the cells were resuspended in 200 µL buffer containing 6 M urea, 7% SDS, 50 mM TEAB, protease inhibitor cocktail (Roche, cat. no. A32963), phosphatase inhibitor (Roche, cat. no. A32957), with pH adjusted to 8.1 with phosphoric acid. The cells were then lysed using a sonicating probe 200 µL. The samples were reduced in 500 mM DTT at 47 °C for 30 min and alkylated in 500 mM IAA in the absence of light, at room temperature for 45 min, followed by quenching in 500 mM DTT for 5 min. The samples were then acidified with 12% phosphoric acid and mixed in a 7:1 ratio with binding buffer containing 90% methanol, 50 mM TEAB, pH 7.1, adjusted with phosphoric acid and loaded on to S-Trap columns (Protifi). […] The concentration of desalted peptides was determined and 50 µg aliquots of each sample were dried in a speed vacuum concentrator. […]
Basic pH reverse-phase LC and data acquisition through LC–MS2/MS3 were performed as previously described. […] Fractions were then analyzed using tandem mass spectrometry (MS2/MS3) on an Orbitrap Fusion mass spectrometer (ThermoFisher, Waltham, MA, USA) with an in-line EASY-nLC 1000 instrument (ThermoFisher, Waltham, MA, USA). […]

The nature of data set [2]: HEK293 cytotoxicity assay (resazurin). It counts as cell-based. As to conditions: HEK-293T cells, human embryonic kidney cells, max 4 µM, read-out: CC50 HEK923. Here is the method: HEK-293T cells were cultured in DMEM (Gibco) supplemented with 10% heat inactivated FBS (Corning) and 1% penicillin-streptomycin (Gibco). Cells were maintained in vented T75 cell culture flasks (Thermo Scientific, Cat. 12-565-349) at 37 °C and 5% CO2, and were passaged every 72 h. […] Compounds were diluted with fresh DMEM (49 µL/well). HEK-293 cells were suspended at 4 × 10^5 cells/mL in DMEM and added to each well (50 µL/well) to give 2 × 10^4 cells/well. Assay plates were incubated at 37 °C and 5% CO2 for 48 h, followed by addition of 20 µL of 0.5 mM resazurin (Alfa Aesar, Cat. B21187) in PBS to each well. […] In each assay plate, cell viability was normalized relative to positive and negative controls. Assays were performed in biological and technical duplicates, and dose–response and CC50 data were generated with GraphPad Prism 5 using a sigmoidal four parameter logistic curve.

SMILES strings stand for the structures. Entries after “also recorded” stand apart in the source; their conditions may differ.

Regarding `C[CH2][Sn]([CH2]C)([CH2]C)[O]C(=O)CCC(=O)Nc1ccc(OC)cc1` [MS26Et3], the “Rab7 expression / abundance” value in data set [1] is “reduced expression; also recorded: differentially expressed; also recorded: decreased in abundance”.

As to `COc1ccc(NC(=O)CCC(=O)O)cc1` [MS26, 4-(4-methoxyphenylamino)-4 oxobutanoic acid], the CC50 at 48 h in data set [2] is more than 4 µM.
